Laboratory results from patent US11932654B2, “Nimbolide analogs as anti-cancer agents and preparation thereof” (priority 2018, dated 2024).

Assays:
Type in all cases: cell-based
[1] = test system: PC3 prostate cancer cell line; experiment: In vitro anticancer activity, SRB assay, PC3; settings: 48 h, NA = Not Active
Procedure: (§1) Cell culture: Human lung adenocarcinoma cell line (A549 cell line), pancreatic cancer cell line (Panc-1, Pan-02), prostate cancer cell line (DU145, PC3), Brest cancer cell line (MCF-7) was grown in DIEM (Dulbecco's modifications of eagle's medium with L-glutamine & 4.5 g/L glucose) supplemented with fetal bovine serum in a humidified atmosphere of a 5% CO2 at 37° C.
(§2) In vitro anticancer activity: Cells were harvested from exponential phase cultures by trypsinization, counted and plated in 96-well plate. Optimal seeding densities for different cell lines in each plate were 5000 cells per well. After 24 h cells were treated with \ the newly synthesized compound at a dose range of 0.1-100 μm final concentration. Thereafter, cells were allowed to grow for 48 h before determination of cell survival by the SRB assay. Then the cells were fixed with 10% cold trichloroacetic acid for 1 h at 4° C. After two washes with deionized water, fixed cells were stained with 50 μL of SRB solution (1% in acetic acid) for 30 min and subsequently washed twice with 1% acetic acid to remove unbound stain. The plates were left to dry at room temperature and bound stain was solubilized with 100 μL of 10 mM buffered Tris base for reading the […] at 540 nm.

[2] = test system: Panc-1 pancreatic cancer cell line; experiment: In vitro anticancer activity, SRB assay, Panc-1; settings: Homo sapiens, 48 h, NA = Not Active
Procedure: as §1, §2

[3] = test system: MCF-7 breast cancer cell line; experiment: In vitro anticancer activity, SRB assay, MCF-7; settings: Homo sapiens, MCF7, 48 h, NA = Not Active
Procedure: as §1, §2

[4] = test system: DU-145 prostate cancer cell line; experiment: In vitro anticancer activity, SRB assay, DU-145; settings: Homo sapiens, 48 h, NA = Not Active
Procedure: as §1, §2

[5] = test system: A549 lung adenocarcinoma cell line; experiment: In vitro anticancer activity, SRB assay, A549; settings: Homo sapiens, 48 h, NA = Not Active
Procedure: as §1, §2

| Structure (SMILES) | IC50 [1] [µM] | IC50 [2] [µM] | IC50 [3] [µM] | IC50 [4] [µM] | IC50 [5] [µM] |
| --- | --- | --- | --- | --- | --- |
| COC(=O)C[C@H]1[C@]2(C)C3=C(C)[C@H](c4ccoc4)C[C@@H]3O[C@@H]2[C@@H]2OC(=O)[C@]3(C)C(OCc4ccccc4)CC(=O)[C@@]1(C)C23 (stereo partly shown) [A2] | 1.01 | 8.78 | 4.72 | 1.45 | 13.1 |
| COC(=O)C[C@H]1[C@]2(C)C3=C(C)[C@H](c4ccoc4)C[C@@H]3O[C@@H]2[C@@H]2OC(=O)[C@]3(C)C(C(O)c4ccc([N+](=O)[O-])cc4)=CC(=O)[C@@]1(C)C23 (stereo partly shown) [A3] | 9.08 | 7.79 | 4.74 | 9.31 | 12.2 |
| COC(=O)C[C@H]1[C@]2(C)C3=C(C)[C@H](c4ccoc4)C[C@@H]3O[C@@H]2[C@@H]2OC(=O)[C@]3(C)C4CC4C(=O)[C@@]1(C)C23 (stereo partly shown) [A5] | 20.6 | 1.04 | 17.1 | 7.91 | 60.8 |
| COC(=O)C[C@H]1[C@]2(C)C3=C(C)[C@H](c4ccoc4)C[C@@H]3O[C@@H]2[C@@H]2OC(=O)[C@]3(C)CCC(=O)[C@@]1(C)C23 (stereo partly shown) [A6] | 79.1 | 32.9 | 32.5 | 75.1 | 67.2 |
| COC(=O)C[C@H]1[C@]2(C)C3=C(C)[C@H](c4ccoc4)C[C@@H]3O[C@@H]2[C@@H]2OC(=O)[C@]3(C)C(Sc4cccc(N)c4)CC(=O)[C@@]1(C)C23 (stereo partly shown) [A7] | 65.3 | 18.6 | 52.2 |  | 23.9 |
| COC(=O)C[C@H]1[C@]2(C)C3=C(C)[C@H](c4ccoc4)C[C@@H]3O[C@@H]2[C@@H]2OC(=O)[C@]3(C)C(Nc4ccccc4)CC(=O)[C@@]1(C)C23 (stereo partly shown) [A8] | 21 | 85.5 | 56.6 |  | 89.4 |
